From ChEMBL document CHEMBL1158512, “The antimicrobial activity of compounds from the leaf and stem of Vitis amurensis against two oral pathogens” (2010)
Converted amounts (≈) assume the structure as drawn. Each block holds one compound with its values, some of them ahead of it. The source made the active and inactive calls. The calls are words filed in the database; no cut-off is given here.

Columns and labels:
Type in all cases: functional
Streptococcus sanguinis [1] = experiment: Antimicrobial activity against Streptococcus sanguinis NCTC 9811 after 20 hrs by plate dilution method; conditions: NCTC 9811, 20 h
Streptococcus mutans [2] = experiment: Antimicrobial activity against Streptococcus mutans KCTC 3065 assessed as total bacterial adherence inhibition
Streptococcus sanguinis [3] = experiment: Antimicrobial activity against Streptococcus sanguinis NCTC 9811 at 100 ug/ml after 20 hrs by disk diffusion method; conditions: for zone of inhibition at 100 µg/mL: NCTC 9811, 20 h, read-out: IZ
Streptococcus mutans [4] = experiment: Antimicrobial activity against Streptococcus mutans KCTC 3065 at 400 ug/ml after 20 hrs by disk diffusion method; conditions: for zone of inhibition at 400 µg/mL: KCTC 3065, 20 h, read-out: IZ
Streptococcus mutans [5] = experiment: Antimicrobial activity against Streptococcus mutans KCTC 3065 after 20 hrs by plate dilution method; conditions: KCTC 3065, 20 h
Streptococcus sanguinis [6] = experiment: Antimicrobial activity against Streptococcus sanguinis NCTC 9811 at 400 ug/ml after 20 hrs by disk diffusion method; conditions: for zone of inhibition at 400 µg/mL: NCTC 9811, 20 h, read-out: IZ
Streptococcus sanguinis [7] = experiment: Antimicrobial activity against Streptococcus sanguinis NCTC 9811 assessed as total bacterial adherence inhibition
Streptococcus mutans [8] = experiment: Antimicrobial activity against Streptococcus mutans KCTC 3065 at 50 ug/ml after 20 hrs by disk diffusion method; conditions: for zone of inhibition at 50 µg/mL: KCTC 3065, 20 h, read-out: IZ
Streptococcus mutans [9] = experiment: Antimicrobial activity against Streptococcus mutans KCTC 3065 at 100 ug/ml after 20 hrs by disk diffusion method; conditions: for zone of inhibition at 100 µg/mL: KCTC 3065, 20 h, read-out: IZ
Streptococcus sanguinis [10] = experiment: Antimicrobial activity against Streptococcus sanguinis NCTC 9811 at 200 ug/ml after 20 hrs by disk diffusion method; conditions: for zone of inhibition at 200 µg/mL: NCTC 9811, 20 h, read-out: IZ
Streptococcus sanguinis [11] = experiment: Antimicrobial activity against Streptococcus sanguinis NCTC 9811 at 50 ug/ml after 20 hrs by disk diffusion method; conditions: for zone of inhibition at 50 µg/mL: NCTC 9811, 20 h, read-out: IZ
Streptococcus mutans [12] = experiment: Antimicrobial activity against Streptococcus mutans KCTC 3065 at 200 ug/ml after 20 hrs by disk diffusion method; conditions: for zone of inhibition at 200 µg/mL: KCTC 3065, 20 h, read-out: IZ
Streptococcus sanguinis [13] = experiment: Antimicrobial activity against Streptococcus sanguinis NCTC 9811 at 600 ug/ml after 20 hrs by disk diffusion method; conditions: for zone of inhibition at 600 µg/mL: NCTC 9811, 20 h, read-out: IZ
Streptococcus mutans [14] = experiment: Antimicrobial activity against Streptococcus mutans KCTC 3065 at 600 ug/ml after 20 hrs by disk diffusion method; conditions: for zone of inhibition at 600 µg/mL: KCTC 3065, 20 h, read-out: IZ

MIC (Streptococcus sanguinis [1]): 12.5 µg/mL (≈ 27.5 µM) | MIC (Streptococcus mutans [5]): 25 µg/mL (≈ 55 µM)
Compound: Oc1ccc(/C=C/c2cc(O)cc3c2[C@H](c2cc(O)cc(O)c2)[C@@H](c2ccc(O)cc2)O3)cc1
MBC (Streptococcus sanguinis [1]): 50 µg/mL (≈ 110 µM) | Concentration for total adherence inhibition (Streptococcus mutans [2]): 25 µg/mL | zone of inhibition at 100 µg/mL (Streptococcus sanguinis [3]): 20 mm | zone of inhibition at 400 µg/mL (Streptococcus mutans [4]): > 20 mm | MBC (Streptococcus mutans [5]): 50 µg/mL (≈ 110 µM) | zone of inhibition at 400 µg/mL (Streptococcus sanguinis [6]): 20 mm | Activity (Streptococcus sanguinis [7]): 50 µg/mL | zone of inhibition at 50 µg/mL (Streptococcus mutans [8]): < 15 mm | zone of inhibition at 100 µg/mL (Streptococcus mutans [9]): < 15 mm | zone of inhibition at 200 µg/mL (Streptococcus sanguinis [10]): 20 mm | zone of inhibition at 50 µg/mL (Streptococcus sanguinis [11]): < 15 mm | zone of inhibition at 200 µg/mL (Streptococcus mutans [12]): 20 mm | zone of inhibition at 600 µg/mL (Streptococcus sanguinis [13]): 20 mm | zone of inhibition at 600 µg/mL (Streptococcus mutans [14]): > 20 mm

MIC (Streptococcus sanguinis [1]): > 400 µg/mL | MIC (Streptococcus mutans [5]): 100 µg/mL (≈ 220 µM)
Compound: Oc1ccc(C2[C@H]3c4cc(O)cc(O)c4[C@@H](c4ccc(O)cc4)[C@@H]2c2cc(O)cc(O)c23)cc1 (stereo not given in full)
MBC (Streptococcus sanguinis [1]): > 400 µg/mL | Concentration for total adherence inhibition (Streptococcus mutans [2]): 100 µg/mL | inhibition zone (IZ) (Streptococcus sanguinis [3]): inactive | zone of inhibition at 400 µg/mL (Streptococcus mutans [4]): < 15 mm | MBC (Streptococcus mutans [5]): 200 µg/mL (≈ 440 µM) | zone of inhibition at 400 µg/mL (Streptococcus sanguinis [6]): < 15 mm | Activity (Streptococcus sanguinis [7]): >200 µg/mL | inhibition zone (IZ) (Streptococcus mutans [8]): inactive | zone of inhibition at 100 µg/mL (Streptococcus mutans [9]): < 11 mm | zone of inhibition at 200 µg/mL (Streptococcus sanguinis [10]): < 11 mm | inhibition zone (IZ) (Streptococcus sanguinis [11]): inactive | zone of inhibition at 200 µg/mL (Streptococcus mutans [12]): < 15 mm | zone of inhibition at 600 µg/mL (Streptococcus sanguinis [13]): < 15 mm | zone of inhibition at 600 µg/mL (Streptococcus mutans [14]): 20 mm

Compound: OC[C@H]1OC(Oc2cc(O)cc(/C=C/c3ccc(O)cc3)c2)[C@H](O)[C@@H](O)[C@@H]1O (stereo not given in full)
inhibition zone (IZ) (Streptococcus sanguinis [3]): inactive | inhibition zone (IZ) (Streptococcus mutans [4]): inactive | inhibition zone (IZ) (Streptococcus sanguinis [6]): inactive | inhibition zone (IZ) (Streptococcus mutans [8]): inactive | inhibition zone (IZ) (Streptococcus mutans [9]): inactive | inhibition zone (IZ) (Streptococcus sanguinis [10]): inactive | inhibition zone (IZ) (Streptococcus sanguinis [11]): inactive | inhibition zone (IZ) (Streptococcus mutans [12]): inactive | inhibition zone (IZ) (Streptococcus sanguinis [13]): inactive | inhibition zone (IZ) (Streptococcus mutans [14]): inactive

Compound: OC[C@H]1O[C@@H](Oc2cc(O)cc(/C=C/c3ccc(O)c(O)c3)c2)[C@H](O)[C@@H](O)[C@@H]1O
inhibition zone (IZ) (Streptococcus sanguinis [3]): inactive | inhibition zone (IZ) (Streptococcus mutans [4]): inactive | inhibition zone (IZ) (Streptococcus sanguinis [6]): inactive | inhibition zone (IZ) (Streptococcus mutans [8]): inactive | inhibition zone (IZ) (Streptococcus mutans [9]): inactive | inhibition zone (IZ) (Streptococcus sanguinis [10]): inactive | inhibition zone (IZ) (Streptococcus sanguinis [11]): inactive | inhibition zone (IZ) (Streptococcus mutans [12]): inactive | inhibition zone (IZ) (Streptococcus sanguinis [13]): inactive | inhibition zone (IZ) (Streptococcus mutans [14]): inactive

MIC (Streptococcus sanguinis [1]): 12.5 µg/mL (≈ 18.4 µM) | MIC (Streptococcus mutans [5]): 50 µg/mL (≈ 73.5 µM)
Compound: Oc1ccc([C@H]2c3c(O)cc(O)cc3[C@H]3c4c(cc(O)c5c4[C@H]2[C@@H](c2ccc(O)cc2)[C@@H]5c2cc(O)cc(O)c2)O[C@@H]3c2ccc(O)cc2)cc1 [AMURESIN G]
MBC (Streptococcus sanguinis [1]): 100 µg/mL (≈ 147 µM) | Concentration for total adherence inhibition (Streptococcus mutans [2]): 25 µg/mL | zone of inhibition at 100 µg/mL (Streptococcus sanguinis [3]): < 15 mm | zone of inhibition at 400 µg/mL (Streptococcus mutans [4]): < 15 mm | MBC (Streptococcus mutans [5]): 50 µg/mL (≈ 73.5 µM) | zone of inhibition at 400 µg/mL (Streptococcus sanguinis [6]): < 15 mm | Activity (Streptococcus sanguinis [7]): 50 µg/mL | inhibition zone (IZ) (Streptococcus mutans [8]): inactive | zone of inhibition at 100 µg/mL (Streptococcus mutans [9]): < 11 mm | zone of inhibition at 200 µg/mL (Streptococcus sanguinis [10]): < 15 mm | zone of inhibition at 50 µg/mL (Streptococcus sanguinis [11]): < 11 mm | zone of inhibition at 200 µg/mL (Streptococcus mutans [12]): < 11 mm | zone of inhibition at 600 µg/mL (Streptococcus sanguinis [13]): < 15 mm | zone of inhibition at 600 µg/mL (Streptococcus mutans [14]): < 15 mm

MIC (Streptococcus sanguinis [1]): 12.5 µg/mL (≈ 17 µM)
Compound: CC[C@H]1OC(=O)[C@H](C)[C@@H](O[C@H]2C[C@@](C)(OC)[C@@H](O)[C@H](C)O2)[C@H](C)[C@@H](O[C@@H]2O[C@H](C)C[C@H](N(C)C)[C@H]2O)[C@](C)(O)C[C@@H](C)C(=O)[C@H](C)[C@@H](O)[C@]1(C)O [ERYTHROMYCIN]
MBC (Streptococcus sanguinis [1]): 50 µg/mL (≈ 68.1 µM) | Concentration for total adherence inhibition (Streptococcus mutans [2]): 0.78 µg/mL | MBC (Streptococcus mutans [5]): < 1.5 µg/mL | Activity (Streptococcus sanguinis [7]): 25 µg/mL

MIC (Streptococcus sanguinis [1]): 50 µg/mL (≈ 205 µM) | MIC (Streptococcus mutans [5]): 50 µg/mL (≈ 205 µM)
Compound: Oc1cc(O)cc(/C=C/c2ccc(O)c(O)c2)c1 [PICEATANNOL]
MBC (Streptococcus sanguinis [1]): 100 µg/mL (≈ 409 µM) | Concentration for total adherence inhibition (Streptococcus mutans [2]): 50 µg/mL | zone of inhibition at 100 µg/mL (Streptococcus sanguinis [3]): < 15 mm | zone of inhibition at 400 µg/mL (Streptococcus mutans [4]): > 20 mm | MBC (Streptococcus mutans [5]): 100 µg/mL (≈ 409 µM) | zone of inhibition at 400 µg/mL (Streptococcus sanguinis [6]): > 20 mm | Activity (Streptococcus sanguinis [7]): 50 µg/mL | zone of inhibition at 50 µg/mL (Streptococcus mutans [8]): < 15 mm | zone of inhibition at 100 µg/mL (Streptococcus mutans [9]): < 15 mm | zone of inhibition at 200 µg/mL (Streptococcus sanguinis [10]): 20 mm | zone of inhibition at 50 µg/mL (Streptococcus sanguinis [11]): < 15 mm | zone of inhibition at 200 µg/mL (Streptococcus mutans [12]): 20 mm | zone of inhibition at 600 µg/mL (Streptococcus sanguinis [13]): > 20 mm | zone of inhibition at 600 µg/mL (Streptococcus mutans [14]): > 20 mm

MIC (Streptococcus sanguinis [1]): 25 µg/mL (≈ 110 µM) | MIC (Streptococcus mutans [5]): 50 µg/mL (≈ 219 µM)
Compound: Oc1ccc(/C=C/c2cc(O)cc(O)c2)cc1 [RESVERATROL]
MBC (Streptococcus sanguinis [1]): 100 µg/mL (≈ 438 µM) | Concentration for total adherence inhibition (Streptococcus mutans [2]): 25 µg/mL | zone of inhibition at 100 µg/mL (Streptococcus sanguinis [3]): < 11 mm | zone of inhibition at 400 µg/mL (Streptococcus mutans [4]): 20 mm | MBC (Streptococcus mutans [5]): 50 µg/mL (≈ 219 µM) | zone of inhibition at 400 µg/mL (Streptococcus sanguinis [6]): < 15 mm | Activity (Streptococcus sanguinis [7]): 100 µg/mL | zone of inhibition at 50 µg/mL (Streptococcus mutans [8]): < 11 mm | zone of inhibition at 100 µg/mL (Streptococcus mutans [9]): < 15 mm | zone of inhibition at 200 µg/mL (Streptococcus sanguinis [10]): < 15 mm | zone of inhibition at 50 µg/mL (Streptococcus sanguinis [11]): < 11 mm | zone of inhibition at 200 µg/mL (Streptococcus mutans [12]): 20 mm | zone of inhibition at 600 µg/mL (Streptococcus sanguinis [13]): 20 mm | zone of inhibition at 600 µg/mL (Streptococcus mutans [14]): > 20 mm
